Source: PubChem BioAssay (NCI)
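Method: 48-hour compound exposure of cells in 96-well plates, five concentrations, linear interpolation of endpoints. TGI: concentration producing complete growth inhibition.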

Legend:
Test in all cases: NCI anticancer screen, dose series, 48 h
BT-549 breast = test system: BT-549 breast
OVCAR-5 ovarian = test system: OVCAR-5 ovarian
HOP-92 NSCLC = test system: HOP-92 NSCLC
SW-620 colon = test system: SW-620 colon
HT29 colon = test system: HT29 colon
SNB-19 CNS = test system: SNB-19 CNS
SK-MEL-5 melanoma = test system: SK-MEL-5 melanoma
NCI-H522 lung = test system: NCI-H522 lung
SF-539 CNS = test system: SF-539 CNS
MDA-N = test system: MDA-N
HOP-62 NSCLC = test system: HOP-62 NSCLC
HCC-2998 colon = test system: HCC-2998 colon
NCI-H23 lung = test system: NCI-H23 lung
HCT-15 colon = test system: HCT-15 colon
ACHN renal = test system: ACHN renal
NCI-H460 lung = test system: NCI-H460 lung
UACC-257 melanoma = test system: UACC-257 melanoma
MOLT-4 leukemia = test system: MOLT-4 leukemia
UO-31 renal = test system: UO-31 renal
NCI-H226 lung = test system: NCI-H226 lung
SK-MEL-28 melanoma = test system: SK-MEL-28 melanoma
HL-60(TB) leukemia = test system: HL-60(TB) leukemia
SR leukemia = test system: SR leukemia
SK-OV-3 ovarian = test system: SK-OV-3 ovarian
HS 578T breast = test system: HS 578T breast
LOX IMVI melanoma = test system: LOX IMVI melanoma
OVCAR-8 ovarian = test system: OVCAR-8 ovarian
U251 CNS = test system: U251 CNS
NCI/ADR-RES ovarian = test system: NCI/ADR-RES ovarian
MDA-MB-231 breast = test system: MDA-MB-231 breast
OVCAR-4 ovarian = test system: OVCAR-4 ovarian
COLO 205 colon = test system: COLO 205 colon
MALME-3M melanoma = test system: MALME-3M melanoma
HCT-116 colon = test system: HCT-116 colon
SF-295 CNS = test system: SF-295 CNS
RXF 393 renal = test system: RXF 393 renal
MDA-MB-435 = test system: MDA-MB-435
MCF7 breast = test system: MCF7 breast
SNB-75 CNS = test system: SNB-75 CNS
A498 renal = test system: A498 renal
SK-MEL-2 melanoma = test system: SK-MEL-2 melanoma
KM12 colon = test system: KM12 colon
K-562 leukemia = test system: K-562 leukemia
UACC-62 melanoma = test system: UACC-62 melanoma
SF-268 CNS = test system: SF-268 CNS
OVCAR-3 ovarian = test system: OVCAR-3 ovarian
CCRF-CEM leukemia = test system: CCRF-CEM leukemia
CAKI-1 renal = test system: CAKI-1 renal
DU-145 prostate = test system: DU-145 prostate
786-0 renal = test system: 786-0 renal
TK-10 renal = test system: TK-10 renal
PC-3 prostate = test system: PC-3 prostate
A549 NSCLC = test system: A549 NSCLC
EKVX NSCLC = test system: EKVX NSCLC
SN12C renal = test system: SN12C renal
T-47D breast = test system: T-47D breast
M14 melanoma = test system: M14 melanoma
IGROV1 ovarian = test system: IGROV1 ovarian
RPMI-8226 leukemia = test system: RPMI-8226 leukemia

## COc1ccc(C(SCCO)(c2ccc(OC)cc2)c2ccc(OC)cc2)cc1
BT-549 breast
  TGI: 38.4 µM
OVCAR-5 ovarian
  TGI: 79.7 µM
HOP-92 NSCLC
  TGI: 28.8 µM
SW-620 colon
  TGI: 81.1 µM
HT29 colon
  TGI: 46 µM
SNB-19 CNS
  TGI: > 100 µM
SK-MEL-5 melanoma
  TGI: 24.6 µM
NCI-H522 lung
  TGI: 28.2 µM
SF-539 CNS
  TGI: 30.6 µM
MDA-N
  TGI: 18.1 µM
HOP-62 NSCLC
  TGI: 44.6 µM
HCC-2998 colon
  TGI: 30.5 µM
NCI-H23 lung
  TGI: 45.2 µM
HCT-15 colon
  TGI: 44.6 µM
ACHN renal
  TGI: 50.2 µM
NCI-H460 lung
  TGI: 35.8 µM
UACC-257 melanoma
  TGI: 32.5 µM
MOLT-4 leukemia
  TGI: 56.4 µM
UO-31 renal
  TGI: 34.4 µM
NCI-H226 lung
  TGI: 32.7 µM
SK-MEL-28 melanoma
  TGI: 38.6 µM
HL-60(TB) leukemia
  TGI: 87.7 µM
SR leukemia
  TGI: 26.7 µM
SK-OV-3 ovarian
  TGI: 94.5 µM
HS 578T breast
  TGI: 44.7 µM
LOX IMVI melanoma
  TGI: 27.1 µM
OVCAR-8 ovarian
  TGI: 37.7 µM
U251 CNS
  TGI: 32.6 µM
NCI/ADR-RES ovarian
  TGI: 49.1 µM
MDA-MB-231 breast
  TGI: 46.6 µM
OVCAR-4 ovarian
  TGI: > 100 µM
COLO 205 colon
  TGI: 25.7 µM
MALME-3M melanoma
  TGI: 34.3 µM
HCT-116 colon
  TGI: 29.2 µM
SF-295 CNS
  TGI: 39.2 µM
RXF 393 renal
  TGI: 30.9 µM
MDA-MB-435
  TGI: 23.5 µM
MCF7 breast
  TGI: 31.6 µM
SNB-75 CNS
  TGI: 61.1 µM
A498 renal
  TGI: 40.1 µM
SK-MEL-2 melanoma
  TGI: 31.7 µM
KM12 colon
  TGI: 71.1 µM
K-562 leukemia
  TGI: 28.4 µM
UACC-62 melanoma
  TGI: 30.1 µM
SF-268 CNS
  TGI: 43.9 µM
OVCAR-3 ovarian
  TGI: 28.4 µM
CCRF-CEM leukemia
  TGI: 66 µM
CAKI-1 renal
  TGI: > 100 µM
DU-145 prostate
  TGI: > 100 µM
786-0 renal
  TGI: 29.7 µM
TK-10 renal
  TGI: 55 µM
PC-3 prostate
  TGI: 42.3 µM
A549 NSCLC
  TGI: 69.3 µM
EKVX NSCLC
  TGI: 36.5 µM
SN12C renal
  TGI: 33.9 µM
T-47D breast
  TGI: 33.7 µM
M14 melanoma
  TGI: 38.5 µM

## CC(C)(C)c1cc(OCc2n[nH]c(=S)n2N)c(Cl)cc1OCc1n[nH]c(=S)n1N
BT-549 breast
  TGI: > 100 µM
OVCAR-5 ovarian
  TGI: > 100 µM
HOP-92 NSCLC
  TGI: > 100 µM
IGROV1 ovarian
  TGI: > 100 µM
SW-620 colon
  TGI: > 100 µM
HT29 colon
  TGI: > 100 µM
SNB-19 CNS
  TGI: > 100 µM
SK-MEL-5 melanoma
  TGI: 54.6 µM
NCI-H522 lung
  TGI: > 100 µM
SF-539 CNS
  TGI: > 100 µM
MDA-N
  TGI: > 100 µM
HOP-62 NSCLC
  TGI: > 100 µM
HCC-2998 colon
  TGI: > 100 µM
NCI-H23 lung
  TGI: > 100 µM
HCT-15 colon
  TGI: > 100 µM
ACHN renal
  TGI: > 100 µM
NCI-H460 lung
  TGI: 77.9 µM
UACC-257 melanoma
  TGI: > 100 µM
MOLT-4 leukemia
  TGI: > 100 µM
UO-31 renal
  TGI: > 100 µM
NCI-H226 lung
  TGI: > 100 µM
SK-MEL-28 melanoma
  TGI: > 100 µM
HL-60(TB) leukemia
  TGI: 58.5 µM
SR leukemia
  TGI: > 100 µM
SK-OV-3 ovarian
  TGI: > 100 µM
HS 578T breast
  TGI: > 100 µM
LOX IMVI melanoma
  TGI: > 100 µM
OVCAR-8 ovarian
  TGI: > 100 µM
U251 CNS
  TGI: > 100 µM
NCI/ADR-RES ovarian
  TGI: > 100 µM
MDA-MB-231 breast
  TGI: > 100 µM
OVCAR-4 ovarian
  TGI: > 100 µM
COLO 205 colon
  TGI: > 100 µM
MALME-3M melanoma
  TGI: > 100 µM
HCT-116 colon
  TGI: > 100 µM
SF-295 CNS
  TGI: > 100 µM
RXF 393 renal
  TGI: > 100 µM
MDA-MB-435
  TGI: > 100 µM
MCF7 breast
  TGI: > 100 µM
SNB-75 CNS
  TGI: > 100 µM
A498 renal
  TGI: > 100 µM
SK-MEL-2 melanoma
  TGI: 43 µM
KM12 colon
  TGI: > 100 µM
K-562 leukemia
  TGI: > 100 µM
UACC-62 melanoma
  TGI: 50.3 µM
SF-268 CNS
  TGI: > 100 µM
OVCAR-3 ovarian
  TGI: > 100 µM
CCRF-CEM leukemia
  TGI: > 100 µM
CAKI-1 renal
  TGI: > 100 µM
DU-145 prostate
  TGI: > 100 µM
786-0 renal
  TGI: > 100 µM
TK-10 renal
  TGI: > 100 µM
PC-3 prostate
  TGI: > 100 µM
A549 NSCLC
  TGI: > 100 µM
RPMI-8226 leukemia
  TGI: > 100 µM
EKVX NSCLC
  TGI: > 100 µM
SN12C renal
  TGI: 94 µM
T-47D breast
  TGI: > 100 µM
M14 melanoma
  TGI: > 100 µM
